≈ marks a conversion by molar mass, not a printed value. Like-named read-outs stand apart in the source and are kept apart here.
Legend:
[1] = tested on: Elizabethkingia anophelis; experiment: Minimum bactericidal concentration (MBC) test; format: cell-based; settings: for MBC: Elizabethkingia anophelis
Excerpt: (§1) Eighteen E. anophelis clinical isolates from the nationwide surveillance program (Taiwan Surveillance of Antimicrobial Resistance) were well characterized in our previous study ([7]) and were selected for susceptibility testing and minimum bactericidal concentration (MBC) assays. Among them, five isolates with different clonality (underlined strains in Fig. S1) were selected for the time-kill assays and in vivo experiments.
(§2) Broth microdilution, disc diffusion, Etest, and agar dilution assays were conducted following CLSI guidelines to determine vancomycin MICs ([8]). […] Criteria for Staphylococcus spp. were not adopted due to the lack of a zone diameter breakpoint. MBCs were determined following CLSI guidelines ([8]).

[2] = tested on: Elizabethkingia anophelis; experiment: Agar dilution (AD) MIC; format: cell-based
Excerpt: as §1, §2

E. anophelis = experiment: Broth microdilution MIC of laboratory-induced and gene-edited mutants; format: cell-based, Elizabethkingia anophelis; settings: for MIC: Elizabethkingia anophelis
Method: (§3) E. anophelis and non-anophelis species with baseline vancomycin MICs of 16–32 mg/L (Table 2) were well characterized in our previous study ([7]) and were included in the induction study. The induction of mutants with elevated vancomycin MICs was modified from a previous study ([18]). Briefly, 10^9 cfu of wild-type E. anophelis (2008S01-229) was plated on brain heart infusion agar (Becton Dickinson, Franklin Lakes, NJ, USA) with twofold multiples of vancomycin (32 –256 mg/L). Isolates from viable colonies were subjected to broth microdilution. Genomic comparison between the parental strain (2008S01-229) and elevated-MIC mutants was performed to identify the mutated gene conferring increased vancomycin MIC. To determine whether similar genetic changes occurred in other Elizabethkingia species, non-anophelis isolates were subjected to the same induction protocol. The corresponding target genes were then analyzed by Sanger sequencing to assess the presence of analogous mutations. The target gene related to elevated vancomycin MICs was also validated via scarless gene editing.
The suicide plasmid pUT-ermF, which contains two key selection markers: the ermF gene for erythromycin resistance and the sacB gene for sucrose sensitivity-based counterselection, was used as previously described ([19]). DNA fragments corresponding to the upstream and downstream flanking regions of the target gene were cloned into pUT-ermF. The recombinant plasmids were first introduced into E. coli S17–λpir and subsequently transferred into Elizabethkingia spp. via conjugation. The first recombination events were selected on LB agar containing 250 µg/mL erythromycin, and the second recombination (plasmid resolution) was selected by plating on LB agar with 10% sucrose (without NaCl). Colonies were screened and confirmed by PCR sequencing. Genome sequencing was carried out to confirm no other inadvertent changes.

[3] = tested on: Elizabethkingia anophelis; experiment: Murine pneumonia model; format: in vivo, C57BL/6J mice; settings: for survival of infected mice: 8 mice per group
Method: In vivo efficacy was assessed by wax moth (Galleria mellonella), murine pneumonia, and murine thigh infection models following the protocols of our previous study ([2]). The Animal Ethics Committee of Taiwan’s National Health Research Institutes approved the murine pneumonia and thigh infection models.
For the pneumonia model, a bacterial suspension was mixed with 5% mucin from porcine stomach (type 3; Sigma-Aldrich, Saint Louis, USA). Seven-week-old C57BL/6J mice were anesthetized with isoflurane for 10 min. For each strain, the inoculum corresponded to the lowest dose that caused >80% mortality in preliminary testing. This inoculum (10⁶–10⁸ cfu, depending on strain) was delivered intratracheally to induce pneumonia. Two hours thereafter, mice received either high or human-equivalent doses of subcutaneous vancomycin (100 mg/kg or 25 mg/kg, respectively) or intraperitoneal teicoplanin (50 mg/kg) ([17]) twice daily for 3 days. Each group contained eight mice, and survival was monitored for 3 days.

E. meningoseptica = experiment: Broth microdilution MIC of laboratory-induced mutants; format: cell-based; settings: Elizabethkingia meningoseptica
Method: as §3

E. bruuniana = experiment: as above; format: cell-based
Method: as §3

E. miricola = experiment: as above; format: cell-based
Method: as §3

E. ursingii = experiment: as above; format: cell-based
Method: as §3

[4] = E. anophelis clinical isolate 2008N05-106
[5] = E. anophelis clinical isolate 2008S01-229
[6] = E. anophelis clinical isolate 2014C06-157
[7] = E. anophelis clinical isolate 2016N17-576
[8] = E. anophelis clinical isolate 2018C04-213
[9] = E. anophelis clinical isolate 2018C04-224
[10] = E. anophelis clinical isolate 2018C07-210
[11] = E. anophelis clinical isolate 2018C07-234
[12] = E. anophelis clinical isolate 2018C08-127
[13] = E. anophelis clinical isolate 2018E03-151
[14] = E. anophelis clinical isolate 2018E04-135
[15] = E. anophelis clinical isolate 2018N16-057
[16] = E. anophelis clinical isolate 2018N17-036
[17] = E. anophelis clinical isolate 2018N17-073
[18] = E. anophelis clinical isolate 2018N17-153
[19] = E. anophelis clinical isolate 2018N21-226
[20] = E. anophelis clinical isolate 2018S09-023
[21] = E. anophelis clinical isolate 2018S11-172

With CN[C@H](CC(C)C)C(=O)N[C@H]1C(=O)N[C@@H](CC(N)=O)C(=O)N[C@H]2C(=O)N[C@H]3C(=O)N[C@H](C(=O)N[C@H](C(=O)O)c4cc(O)cc(O)c4-c4cc3ccc4O)[C@H](O)c3ccc(c(Cl)c3)Oc3cc2cc(c3O[C@@H]2O[C@H](CO)[C@@H](O)[C@H](O)[C@H]2O[C@H]2C[C@](C)(N)[C@H](O)[C@H](C)O2)Oc2ccc(cc2Cl)[C@H]1O [Vancomycin] the “MBCs relative to MICs” value ([1]; 18 E. anophelis isolates) was “within a twofold range of MICs”, the MBC [1, 4] was 16 µg/mL (≈ 11 µM) and the MBC [1, 5] was 32 µg/mL (≈ 22.1 µM). The MBC [1, 6] was 16 µg/mL (≈ 11 µM), the MBC [1, 7] was 32 µg/mL (≈ 22.1 µM) and the MBC [1, 8] was 16 µg/mL (≈ 11 µM). For the same molecule, the MBC [1, 9] was 16 µg/mL (≈ 11 µM), the MBC [1, 10] was 16 µg/mL (≈ 11 µM) and the MBC [1, 11] was 16 µg/mL (≈ 11 µM). It also gave an MBC [1, 12] of 16 µg/mL (≈ 11 µM), an MBC [1, 13] of 16 µg/mL (≈ 11 µM) and an MBC [1, 14] of 16 µg/mL (≈ 11 µM). It also gave an MBC [1, 15] of 16 µg/mL (≈ 11 µM), an MBC [1, 16] of 32 µg/mL (≈ 22.1 µM) and an MBC [1, 17] of 16 µg/mL (≈ 11 µM). For the same molecule, the MBC [1, 18] was 16 µg/mL (≈ 11 µM), the MBC [1, 19] was 16 µg/mL (≈ 11 µM) and the MBC [1, 20] was 16 µg/mL (≈ 11 µM). It also gave an MBC [1, 21] of 32 µg/mL (≈ 22.1 µM), an MIC [2, 4] of 16 µg/mL (≈ 11 µM) and an MIC [2, 5] of 16 µg/mL (≈ 11 µM). The MIC [2, 6] was 16 µg/mL (≈ 11 µM), the MIC [2, 7] was 16 µg/mL (≈ 11 µM) and the MIC [2, 8] was 16 µg/mL (≈ 11 µM). The MIC [2, 9] was 16 µg/mL (≈ 11 µM), the MIC [2, 10] was 16 µg/mL (≈ 11 µM) and the MIC [2, 11] was 16 µg/mL (≈ 11 µM). For the same molecule, the MIC [2, 12] was 16 µg/mL (≈ 11 µM), the MIC [2, 13] was 16 µg/mL (≈ 11 µM) and the MIC [2, 14] was 16 µg/mL (≈ 11 µM). It also gave an MIC [2, 15] of 16 µg/mL (≈ 11 µM), an MIC [2, 16] of 16 µg/mL (≈ 11 µM) and an MIC [2, 17] of 16 µg/mL (≈ 11 µM). The MIC [2, 18] was 16 µg/mL (≈ 11 µM), the MIC [2, 19] was 16 µg/mL (≈ 11 µM) and the MIC [2, 20] was 16 µg/mL (≈ 11 µM). The MIC [2, 21] was 32 µg/mL (≈ 22.1 µM), the MIC (E. anophelis; induced E. anophelis mutant, pbp4 692InsC, Frameshift, 1 isolate) was 512 µg/mL and the MIC (E. anophelis; induced E. anophelis mutant, pbp4 736Del8bp, Frameshift, 1 isolate) was 512 µg/mL. For the same molecule, the MIC (E. anophelis; induced E. anophelis mutant, pbp4 827DelA, Frameshift, 1 isolate) was 128 µg/mL, the MIC (E. anophelis; scarless deletion of pbp4 in wild-type E. anophelis 2008N05-106, read-out: MIC) was greater than 512 µg/mL and the MIC (E. anophelis; wild-type E. anophelis parent strain (2008S01-229), read-out: Parent strain MIC) was 32 µg/mL. For the same molecule, the “effect on MIC” value (E. anophelis; replacement of exbD with Thr28Pro mutation in 2008N05-106) was “did not affect the vancomycin MIC”, the “survival of infected mice” value ([3]; 25 mg/kg subcutaneous twice daily for 3 days, from 2 h after intratracheal inoculation, all clinical strains except 2014C06-157) was “significantly improved the survival or delayed death” and the “in vivo efficacy against one isolate” value ([3]; 25 mg/kg, one isolate with similar MIC (2014C06-157)) was “ineffective”. For the same molecule, the “survival of infected mice” value ([3]; 100 mg/kg subcutaneous twice daily for 3 days) was “conferred a survival benefit”, the “improvement of murine survival” value ([3]; 100 mg/kg twice daily, infection by 2008S01-229-VAN-R compared to 2008S01-229) was “hampered” and the MIC (E. meningoseptica; induced E. meningoseptica mutants, pbp4 827DelA, Frameshift, 2 isolates, one value each) was 64 µg/mL. The MIC (E. meningoseptica; wild-type E. meningoseptica parent strain, read-out: Parent strain MIC) was 16 µg/mL, the MIC (E. bruuniana) was 256 µg/mL and the MIC (E. bruuniana; wild-type E. bruuniana parent strain, read-out: Parent strain MIC) was 16 µg/mL. For the same molecule, the MIC (E. miricola) was 512 µg/mL, the MIC (E. miricola; wild-type E. miricola parent strain, read-out: Parent strain MIC) was 32 µg/mL and the MIC (E. ursingii) was 256 µg/mL. For the same molecule, the MIC (E. ursingii; wild-type E. ursingii parent strain, read-out: Parent strain MIC) was 32 µg/mL and the MIC (E. ursingii; {}) was 256 µg/mL.

From paper PMC12584665, “In vitro and in vivo efficacy of vancomycin against Elizabethkingia species and the impact of increased vancomycin MICs” (Microbiology Spectrum, 2025)
